# From patent US20230202985A1, “Indoles, Indazoles, and Related Analogs for Inhibiting YAP/TAZ-TEAD” (THE KATHOLIEKE UNIVERSITEIT LEUVEN, priority 2021, published 2023)
# Columns and labels:
# Type in all cases: cell-based
# [1] = system: YAP/TAZ-TEAD transcription; assay: Reporter gene assay for measuring the inhibition of YAP/TAZ-TEAD transcription (TEAD-responsive element luciferase reporter in Hek293T cells); details: Homo sapiens, HEK-293T; Hek293T cells transfected with TEAD-responsive luciferase reporter, 24 hours incubation
# Procedure: Hek293T cells are cultured in DMEM supplemented with 10% fetal bovine serum, Sodium pyruvate, Sodium bicarbonate, L-glutamine. The cells are harvested and transiently transfected with TEAD-responsive element luciferase reporter. Transfected cells are plated in 384-wells plate containing pre-diluted compounds. After 24 hours incubation at 37° C./5% CO2, assay plates were cooled down to RT and levelled to an equal volume per well, prior to the addition of 25 uL luciferase substrate SteadyLite (Perkin Elmer)/well. The plate was shaken for 10 min at 600 rpm, centrifuged for 1 min at 500 rpm and measured with an Envision reader (PerkinElmer). The amount of relative light units produced by the TEAD reporter is used to calculated percent of inhibition.
# The percent of reporter inhibition was calculated in the presence of a positive control inhibitor (100% inhibition) versus a condition with the presence of the vehicle basal activity of the reporter (0% inhibition). The ability of a test compound to inhibit this activity was determined as:
# Percentage inhibition=[1−((RLU determined in the presence of vehicle−RLU determined for sample with test compound present) divided by (RLU determined in the presence of vehicle−RLU determined for sample with positive control inhibitor))]*100
# The activities of example compounds tested are depicted in Table 6. The activity ranges A, B and C refer to IC50 values in the reporter gene assay as follows: “A”: IC50<1 μM; “B”: 1 μM≤IC50≤20 μM and “C”: IC50>20 μM; NT=not tested.
# NCI-H226 = assay: Mesothelioma cell line proliferation assay (ATPlite), NCI-H226; details: Homo sapiens, 144 h; NCI-H226 cells, 6 days with compound, cell viability by ATPlite
# Procedure: (§1) Mesothelioma cell lines, NCI-H226 and NCI-H2052 (all sourced from the ATCC cell culture collection) are plated in 96-well plates (Corning® 96 Well White Polystyrene Microplate clear flat bottom, white polystyrene (TC-Treated)), at 1500 cells/well in full medium (RPMI 1640 ATCC modification with L-glutamine, HEPES, Phenol Red, Sodium Pyruvate, High glucose, Low sodium bicarbonate and 10% fetal bovine serum). Cells are incubated overnight at 37° C. in an incubator with 5% CO2. Then compounds, dissolved in DMSO, are added in dose-response. Cells are incubated with compound dilutions for another 6 days at 37° C. in an incubator with 5% CO2. Cell viability is quantitated using the ATPlite kit (Perkin-Elmer) and the luminescence is read-out using an Envision instrument (Perkin-Elmer). The amount of relative light units produced using the ATPlite kit is used to calculated percent of inhibition.
# (§2) The activities of some example compounds are depicted in Table 7. The activity ranges A, B and C refer to EC50 values in the mesothelioma cell line proliferation assay as described as follows: “A”: EC50<1 μM; “B”: 1 μM≤EC50≤10 μM and “C”: EC50>10 μM; NT: not tested.
# NCI-H2052 = assay: Mesothelioma cell line proliferation assay (ATPlite), NCI-H2052; details: Homo sapiens, 144 h; NCI-H2052 cells, 6 days with compound, cell viability by ATPlite
# Procedure: as §1, §2
SMILES,EC50 [1] [nM],EC50 (NCI-H226) [nM],EC50 (NCI-H2052) [nM]
"C=CC(=O)NCc1cc2ccccc2n1Cc1ccc(C(F)(F)F)cc1 [compound 31, N-((1-(4-(trifluoromethyl)benzyl)-1H-indol-2-yl)methyl)acrylamide]",< 1000,< 1000,1000 to 10000
"C=CC(=O)NCc1nn(-c2ccc(OC(F)(F)F)cc2)c2ccccc12 [Cpd. No. 4, N-((1-(4-(trifluoromethoxy)phenyl)-1H-indazol-3-yl)methyl)acrylamide]",< 1000,< 1000,< 1000
"C=CC(=O)Nc1cn(-c2ccc(C(F)(F)F)cc2)c2ccccc12 [compound 20, N-(1-(4-(trifluoromethyl)phenyl)-1H-indol-3-yl)acrylamide]",< 1000,1000 to 10000,< 1000
"CS(=O)(=O)NC(=O)c1nn(-c2ccc(C(F)(F)F)cc2)c2ccccc12 [compound 12, N-(methylsulfonyl)-1-(4-(trifluoromethyl)phenyl)-1H-indazole-3-carboxamide]",1000 to 20000,,
"C#CCOc1ccc2c(c1)c(CNC(=O)CC)nn2-c1ccc(C(F)(F)F)cc1 [compound 64, N-[[5-prop-2-ynoxy-1-[4-(trifluoromethyl)phenyl]indazol-3-yl]methyl]propanamide]",> 20000,,
"Cn1cc(S(=O)(=O)NCc2nn(-c3ccc(C(F)(F)F)cc3)c3ccccc23)cn1 [compound 9, 1-methyl-N-((1-(4-(trifluoromethyl)phenyl)-1H-indazol-3-yl)methyl)-1H-pyrazole-4-sulfonamide]",> 20000,,
"CCC(=O)NCc1nn(-c2ccc(C(F)(F)F)cc2)c2cc(OC3CC3)ccc12 [compound 62, N-[[6-(cyclopropoxy)-1-[4-(trifluoromethyl)phenyl]indazol-3-yl]methyl]propanamide]",> 20000,,
"O=S(=O)(NCc1nn(-c2ccc(C(F)(F)F)cc2)c2ccccc12)C1CC1 [compound 11, N-((1-(4-(trifluoromethyl)phenyl)-1H-indazol-3-yl)methyl)cyclopropanesulfonamide]",1000 to 20000,,
"C#CCOc1ccc2c(c1)c(CNS(C)(=O)=O)nn2-c1ccc(C(F)(F)F)cc1 [compound 65, N-[[5-prop-2-ynoxy-1-[4-(trifluoromethyl)phenyl]indazol-3-yl]methyl]methanesulfonamide]",> 20000,,
"CCC(=O)NCc1nn(-c2ccc(C(F)(F)F)cc2)c2ccccc12 [compound 2, N-((1-(4-(trifluoromethyl)phenyl)-1H-indazol-3-yl)methyl)propionamide]",1000 to 20000,,
"C=CC(=O)Nc1cn(-c2ccc(-c3ccccc3)cc2)c2ccccc12 [compound 26, N-(1-([1,1′-biphenyl]-4-yl)-1H-indol-3-yl)acrylamide]",< 1000,,
"CS(=O)(=O)NCc1nn(-c2ccc(C(F)(F)F)cc2)c2ccc(OCC#N)cc12 [compound 42, N-[[5-(cyanomethoxy)-1-[4-(trifluoromethyl)phenyl]indazol-3-yl]methyl]methanesulfonamide]",> 20000,,
"CNC(=O)c1nn(-c2ccc(C(F)(F)F)cc2)c2ccccc12 [compound 8, N-methyl-1-(4-(trifluoromethyl)phenyl)-1H-indazole-3-carboxamide]",> 20000,,
"CS(=O)(=O)NCc1nn(-c2ccc(C(F)(F)F)cc2)c2ccc(Oc3ccccc3)cc12 [Cpd. No. 45, N-[[5-phenoxy-1-[4-(trifluoromethyl)phenyl]indazol-3-yl]methyl]methanesulfonamide]",1000 to 20000,,
"CS(=O)(=O)NCc1nn(-c2ccc(C(F)(F)F)cc2)c2ccc(OCC3CC3)cc12 [compound 68, N-[[5-(cyclopropylmethoxy)-1-[4-(trifluoromethyl)phenyl]indazol-3-yl]methyl]methanesulfonamide]",< 1000,,
"CC(=O)NC1C(=O)N(c2ccc(C(F)(F)F)cc2)c2ccccc21 (stereo not drawn) [compound 34, N-(2-oxo-1-(4-(trifluoromethyl)phenyl)indolin-3-yl)acetamide]",> 20000,,
"CC(=O)NCc1nn(-c2ccc(C(F)(F)F)cc2)c2cc(C(F)(F)F)ccc12 [compound 75, N-[[6-(trifluoromethyl)-1-[4-(trifluoromethyl)phenyl]indazol-3-yl]methyl]acetamide]",> 20000,,
"O=C(NCC(O)CO)c1nn(-c2ccc(C(F)(F)F)cc2)c2ccccc12 (stereo not drawn) [compound 15, N-(2,3-dihydroxypropyl)-1-(4-(trifluoromethyl)phenyl)-1H-indazole-3-carboxamide]",1000 to 20000,,

# Next, values leading:
EC50 [1] [nM],EC50 (NCI-H226) [nM],EC50 (NCI-H2052) [nM],SMILES
< 1000,> 10000,1000 to 10000,"C=CC(=O)NCc1cn(-c2ccc(C(F)(F)F)cc2)c2ccccc12 [compound 27, N-((1-(4-(trifluoromethyl)phenyl)-1H-indol-3-yl)methyl)acrylamide]"
< 1000,< 1000,< 1000,"C=CC(=O)NCc1nn(-c2ccc(C(F)(F)F)cc2)c2cc(C(F)(F)F)ccc12 [compound 74, N-[[6-(trifluoromethyl)-1-[4-(trifluoromethyl)phenyl]indazol-3-yl]methyl]prop-2-enamide]"
< 1000,< 1000,< 1000,"C=CC(=O)NCc1nn(-c2ccc(C(F)(F)F)cc2)c2cccnc12 [compound 40, N-((1-(4-(trifluoromethyl)phenyl)-1H-pyrazolo[4,3-b]pyridin-3-yl)methyl)acrylamide]"
< 1000,< 1000,< 1000,"C=CC(=O)NCc1nn(-c2ccc(C(F)(F)F)cc2)c2cnccc12 [compound 59, N-[[1-[4-(trifluoromethyl)phenyl]pyrazolo[3,4-c]pyridin-3-yl]methyl]prop-2-enamide]"
< 1000,< 1000,< 1000,"C=CC(=O)NCc1nn(-c2ccc(C(F)(F)F)cc2)c2ccccc12 [compound 1, N-((1-(4-(trifluoromethyl)phenyl)-1H-indazol-3-yl)methyl)acrylamide]"
< 1000,> 10000,> 10000,"CS(=O)(=O)NCc1nn(-c2ccc(C(F)(F)F)cc2)c2ccccc12 [compound 3, N-((1-(4-(trifluoromethyl)phenyl)-1H-indazol-3-yl)methyl)methanesulfonamide]"
< 1000,< 1000,< 1000,"C=CC(=O)NCc1nn(-c2ccc(C(F)(F)F)cc2)c2ccc(OC[C@H]3CCOC3)cc12 (single isomer, unassigned) [compound 47]"
< 1000,< 1000,< 1000,"C=CC(=O)NCc1nn(-c2ccc(C(F)(F)F)cc2)c2ccc(OCC3CCOC3)cc12 (racemic) [compound 46, N-[[5-[[rac-tetrahydrofuran-3-yl]methoxy]-1-[4-(trifluoromethyl)phenyl]indazol-3-yl]methyl]prop-2-enamide]"
< 1000,< 1000,< 1000,"C=CC(=O)NCc1nn(-c2ccc(C(F)(F)F)cc2)c2ccc(C(F)(F)F)cc12 [compound 71, N-[[5-(trifluoromethyl)-1-[4-(trifluoromethyl)phenyl]indazol-3-yl]methyl]prop-2-enamide]"
< 1000,< 1000,< 1000,"C=CC(=O)NCc1nn(-c2ccc(C(F)(F)F)cc2)c2ccc(OCc3cc[nH]n3)cc12 [compound 58, N-[[5-(1H-pyrazol-3-ylmethoxy)-1-[4-(trifluoromethyl)phenyl]indazol-3-yl]methyl]prop-2-enamide]"
< 1000,< 1000,< 1000,"C=CC(=O)NCc1nn(-c2ccc(C(F)(F)F)cc2)c2ccc(OCC#N)cc12 [Cpd. No. 43, N-[[5-(cyanomethoxy)-1-[4-(trifluoromethyl)phenyl]indazol-3-yl]methyl]prop-2-enamide]"
< 1000,< 1000,< 1000,"C=CC(=O)NCc1nn(C2CCC(F)(F)CC2)c2ccccc12 [compound 77, N-[[1-(4,4-difluorocyclohexyl)indazol-3-yl]methyl]prop-2-enamide]"
< 1000,< 1000,< 1000,"C=CC(=O)NCc1nn(-c2ccc(C(F)(F)F)cc2)c2ncccc12 [compound 19, N-((1-(4-(trifluoromethyl)phenyl)-1H-pyrazolo[3,4-b]pyridin-3-yl)methyl)acrylamide]"
